Source: patent US20250205265A1, “ASPERULOSIDE AS AN AGENT FOR IMPROVING VASCULAR AND METABOLIC FUNCTION IN OBESITY: ROLE OF NRF2 ACTIVATION” (The Chinese University of Hong Kong, priority 2023, published 2025)

Key:
[1] = test system: Nrf2/antioxidant responsive element (ARE); assay: ARE binding activity, luciferase reporter assay in endothelial cells; assay type: cell-based; conditions: luciferase reporter assay
Method: (§1) After induction of obesity in C57BL/6 male mice fed with the high-fat diet for twelve weeks, they were treated daily with ASP (50 mg/kg) via oral gavage for seven weeks in vivo study. C57BL/6 mice aortae were used for ex vivo studies. Endothelial cells, HepG2 and primary adipocytes were used for in vitro studies. Vascular function was determined by wire myograph. H&E staining was employed for histological examination. Oil Red O staining was used to determine lipid droplets in tissues and cells. DHE and MitoSOX staining were used to detect ROS levels. QPCR, aortic en-face immunofluorescence staining, and Western blotting were used to analyze mRNA and protein expressions. ARE binding activity was determined by Dual luciferase reporter assay. Small interfering (si)RNA of Nrf2 and HO-1, inhibitors of Nrf2 (ML385, Cat. No.: HY-100523) and HO-1 (OB-24, HY-118487) were used to elucidate the mechanistic pathway of ASP's action.

Nrf2 = Nrf2 nuclear translocation in endothelial cells; assay type: cell-based; conditions: ML385 co-treatment; immunofluorescence and western blotting
Method: After induction of obesity in C57BL/6 male mice fed with high fat diet for twelve weeks, they were treated daily with ASP (50 mg/kg) via oral gavage for seven weeks in vivo study. C57BL/6 mice aortae were used for ex vivo study and endothelial cells were used for in vitro study. Vascular function was determined by wire myograph. DHE and MitoSOX staining were used to detect ROS levels. QPCR, aortic en-face immunofluorescence staining, and Western blotting were used to analyze mRNA and protein expressions. Small interfering (si)RNA of Nrf2 and HO-1, inhibitors of Nrf2 (ML385, Cat. No.: HY-100523) and HO-1 (OB-24, HY-118487) were used to elucidate the mechanistic pathway of ASP's action.
as §1

Cc1ccccc1C(=O)N1CCc2cc(-c3nc(NC(=O)Cc4ccc5c(c4)OCO5)sc3C)ccc21 [ML385, reference compound]
effect on activation of ARE binding by ASP [1]: attenuates the activation of ARE binding by ASP | effect on Nrf2 nuclear translocation stimulated by ASP (Nrf2): blocks Nrf2 nuclear translocation stimulated by ASP
